This note sets out measurements from article PMC5991599, “Anti‐tumor efficacy of a novel CLK inhibitor via targeting RNA splicing and MYC‐dependent vulnerability” (EMBO Molecular Medicine, 2018).

Common to all, as to experiment: KINOMEScan-based kinase selectivity assay
Holding throughout (format): binding

The target of one test is T1, CLK4 (Homo sapiens, UniProt Q9HAZ1).
T1 construct: purchased DiscoverX Corporation (Fremont, CA, USA)
As for the experimental part: (§1) The KINOMEScan‐based kinase selectivity assay was performed at the DiscoverX Corporation (Fremont, CA, USA). The panel of growth inhibition assay and subsequent bioinformatics analysis (Fig EV1) were performed at Eurofins Inc. (St. […] Details of the procedures of cell proliferation assay, caspase‐3/7 activity assay, immunoblotting, and immunohistochemistry are described in Appendix Supplementary Methods.

Another test addresses T2, DYRK1A (Homo sapiens, UniProt Q13627).
T2 construct: purchased DiscoverX Corporation (Fremont, CA, USA)
As for the experimental part: as §1

The target in the next test is T3, YSK4 (Homo sapiens, UniProt Q56UN5).
T3 construct: purchased DiscoverX Corporation (Fremont, CA, USA)
As for the experimental part:
as §1

The next test addresses T4, IRAK4 (Homo sapiens, UniProt Q9NWZ3).
T4 construct: purchased DiscoverX Corporation (Fremont, CA, USA)
As for the experimental part:
as §1

T4 sequence (Q9NWZ3 whole entry): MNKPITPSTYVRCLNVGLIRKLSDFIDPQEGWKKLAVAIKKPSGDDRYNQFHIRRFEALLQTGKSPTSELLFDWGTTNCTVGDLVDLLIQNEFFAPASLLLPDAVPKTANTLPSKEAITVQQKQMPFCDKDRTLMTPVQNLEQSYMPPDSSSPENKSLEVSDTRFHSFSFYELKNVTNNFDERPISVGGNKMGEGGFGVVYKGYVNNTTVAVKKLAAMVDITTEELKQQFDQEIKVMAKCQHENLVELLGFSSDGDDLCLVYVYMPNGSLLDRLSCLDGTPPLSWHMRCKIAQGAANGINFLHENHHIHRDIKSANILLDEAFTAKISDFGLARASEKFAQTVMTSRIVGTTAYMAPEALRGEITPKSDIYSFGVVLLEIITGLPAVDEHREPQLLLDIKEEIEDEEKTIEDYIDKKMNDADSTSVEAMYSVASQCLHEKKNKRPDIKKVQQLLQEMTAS
T3 sequence (Q56UN5 whole entry): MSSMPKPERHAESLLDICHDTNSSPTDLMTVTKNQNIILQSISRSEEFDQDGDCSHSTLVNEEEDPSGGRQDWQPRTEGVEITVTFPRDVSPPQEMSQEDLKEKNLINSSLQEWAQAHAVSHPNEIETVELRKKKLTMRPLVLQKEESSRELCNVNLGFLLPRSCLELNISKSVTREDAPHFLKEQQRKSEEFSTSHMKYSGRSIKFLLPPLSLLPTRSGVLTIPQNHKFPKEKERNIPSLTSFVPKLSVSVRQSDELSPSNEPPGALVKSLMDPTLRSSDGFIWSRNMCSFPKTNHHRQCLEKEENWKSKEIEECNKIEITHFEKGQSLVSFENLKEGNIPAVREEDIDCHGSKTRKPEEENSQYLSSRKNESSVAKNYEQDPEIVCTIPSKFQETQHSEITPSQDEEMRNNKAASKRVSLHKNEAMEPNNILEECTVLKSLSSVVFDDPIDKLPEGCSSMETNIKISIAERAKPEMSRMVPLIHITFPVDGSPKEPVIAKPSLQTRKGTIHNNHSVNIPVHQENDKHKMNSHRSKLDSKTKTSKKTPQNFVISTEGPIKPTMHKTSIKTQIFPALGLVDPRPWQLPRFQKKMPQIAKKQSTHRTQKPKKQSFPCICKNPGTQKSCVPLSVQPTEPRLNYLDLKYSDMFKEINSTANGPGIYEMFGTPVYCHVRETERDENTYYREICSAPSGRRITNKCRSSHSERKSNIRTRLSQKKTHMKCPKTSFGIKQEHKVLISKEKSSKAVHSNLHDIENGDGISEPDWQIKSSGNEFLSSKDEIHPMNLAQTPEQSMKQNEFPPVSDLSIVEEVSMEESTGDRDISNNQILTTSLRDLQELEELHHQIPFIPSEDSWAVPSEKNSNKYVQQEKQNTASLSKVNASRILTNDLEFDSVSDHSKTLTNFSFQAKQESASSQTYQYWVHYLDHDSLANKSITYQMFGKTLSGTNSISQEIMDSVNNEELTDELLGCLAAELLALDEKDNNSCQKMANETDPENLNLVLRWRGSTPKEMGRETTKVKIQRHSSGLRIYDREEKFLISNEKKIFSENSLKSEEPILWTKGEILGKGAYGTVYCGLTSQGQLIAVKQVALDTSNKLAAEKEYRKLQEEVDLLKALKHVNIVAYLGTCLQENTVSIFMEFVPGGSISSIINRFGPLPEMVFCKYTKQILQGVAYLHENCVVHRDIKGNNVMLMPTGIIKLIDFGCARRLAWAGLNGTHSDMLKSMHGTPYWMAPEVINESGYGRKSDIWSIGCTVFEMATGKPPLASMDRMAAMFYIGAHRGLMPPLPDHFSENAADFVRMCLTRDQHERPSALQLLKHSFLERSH
T1 sequence (Q9HAZ1 whole entry): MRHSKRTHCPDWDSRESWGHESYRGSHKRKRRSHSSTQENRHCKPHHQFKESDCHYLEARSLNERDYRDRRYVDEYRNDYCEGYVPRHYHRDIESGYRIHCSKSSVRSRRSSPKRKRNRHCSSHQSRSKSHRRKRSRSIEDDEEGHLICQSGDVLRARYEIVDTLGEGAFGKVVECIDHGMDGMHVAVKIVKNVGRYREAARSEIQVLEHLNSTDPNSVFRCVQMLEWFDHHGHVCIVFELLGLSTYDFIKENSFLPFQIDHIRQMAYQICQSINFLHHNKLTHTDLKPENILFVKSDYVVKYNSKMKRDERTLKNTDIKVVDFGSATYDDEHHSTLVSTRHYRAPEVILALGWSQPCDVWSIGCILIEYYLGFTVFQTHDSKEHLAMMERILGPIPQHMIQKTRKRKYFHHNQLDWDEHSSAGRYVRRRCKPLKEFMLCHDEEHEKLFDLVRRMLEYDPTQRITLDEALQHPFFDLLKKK

As for `CNc1nc(NCc2ncccn2)c2c(-c3ccc4ncccc4c3)c[nH]c2n1` [T-025, N ^2‐methyl‐N ^4‐[pyrimidin‐2‐ylmethyl]‐5‐[quinolin‐6‐yl]‐7H‐pyrrolo[2,3‐d]pyrimidine‐2,4‐diamine], the Kd at CLK4 amounted to 0.61 nM; on DYRK1A, 0.074 nM; at YSK4, 33 nM; at IRAK4, 54 nM. Moreover, the inhibition at 0.3 µM turned out to be 100% against CLK4 (300 nmol/L, n = 2); 100% at DYRK1A (300 nmol/L, n = 2); 97.5% against YSK4 (300 nmol/L, n = 2); 94.8% against IRAK4 (300 nmol/L, n = 2).

The term Kd denotes the concentration at which binding is half-saturated. A lower Kd goes with higher affinity. The term inhibition denotes how much of the control response was suppressed.
